Measured values from paper PMC9386018, “A lymphatic-absorbed multi-targeted kinase inhibitor for myelofibrosis therapy” (Nature Communications, 2022).

Assays:
[1] = test system: MPL^W515L mouse model of myelofibrosis; test: MPL^W515L MF mouse model: immune cell numbers in spleen; format: in vivo; conditions: MPL^W515L mice, oral 400 mg kg^−1 daily, 28 d
Method: The human megakaryoblastic cell line, SET-2 (ATCC), was maintained in RPMI 1640 supplemented with 20% FBS and incubated for 16 h at 10^6 cells mL^−1 with LP-182 or vehicle (DMSO; dimethyl sulfoxide), then washed in ice-cold PBS, and collected for flow cytometry analysis. Single-cell suspensions of mouse spleen were prepared from MPL^W515L MF mice (below) in RPMI 1640 supplemented with 5% FCS. Red blood cells were lysed by ammonium chloride-mediated red cell lysis (RCL) buffer and passed through a nylon mesh, and then cells were counted. For intracellular phospho-protein staining, SET-2 or spleen cells were fixed and then permeabilized using BD Phospho-flow fixation buffer and Perm-Buffer III (BD biosciences) according to the manufacturer’s protocol. Intracellular phospho-protein staining was performed using fluorochrome-conjugated antibodies, pAKT (pS473)-Alexa Fluor 647 (MB89-61) or pERK1/2 (pT202/pY204)-Alexa Fluor 647 (20 A). […] Flow cytometry was performed on a FACS Fortessa (Becton, Dickinson and Co.) using FACSDiVa software, and data analyzed using FlowJo software (Tree Star). […]
Generation of the MPL^W515L mutant MF mouse model was similar to previously described methods. […] Development of MF was evaluated by spleen volumes using MRI beginning ~14 d following bone marrow transplantation (BMT) as outlined below, continuing weekly until end of the study. […]

[2] = biological target: 321 human protein kinases (Homo sapiens, UniProt O15530); test: Single-point broad panel kinome screening (SelectScreen Z'-LYTE and Adapta); format: biochemical; conditions: PDK1; […] LP-182; [ATP] 100 μM
Chain of 321 human protein kinases (Homo sapiens, UniProt O15530) (O15530 whole entry, canonical isoform): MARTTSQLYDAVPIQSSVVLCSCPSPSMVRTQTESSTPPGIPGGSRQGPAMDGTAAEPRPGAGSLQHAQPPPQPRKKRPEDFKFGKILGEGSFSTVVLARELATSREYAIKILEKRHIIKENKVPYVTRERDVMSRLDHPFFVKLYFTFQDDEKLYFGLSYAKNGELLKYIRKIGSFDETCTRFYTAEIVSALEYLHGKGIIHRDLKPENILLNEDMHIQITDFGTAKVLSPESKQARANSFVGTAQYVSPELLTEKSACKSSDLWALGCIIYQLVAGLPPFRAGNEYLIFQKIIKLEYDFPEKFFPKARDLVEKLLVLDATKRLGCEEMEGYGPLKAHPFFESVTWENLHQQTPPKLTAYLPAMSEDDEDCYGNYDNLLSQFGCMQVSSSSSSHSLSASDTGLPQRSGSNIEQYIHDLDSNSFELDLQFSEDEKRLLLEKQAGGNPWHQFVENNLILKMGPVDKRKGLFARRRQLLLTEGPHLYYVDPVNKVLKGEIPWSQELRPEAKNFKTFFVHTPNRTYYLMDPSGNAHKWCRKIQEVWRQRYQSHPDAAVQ
Method: (§1) Quantitation of kinase inhibition was carried out by Life Technologies (Madison, WI) using the SelectScreen profiling platforms Z’-LYTE^TM and Adapta^TM. Single-point broad panel kinome screening was performed at 2.5 µM LP-182 against all kinases within the Z’-LYTE^TM and Adapta^TM assays (321 kinase isoforms, holoenzymes, or mutant variants). The average percent kinase inhibition from replicate data was ranked low to high, converted to a compatible identifier format, then input into Coral Human Kinome Visualization software for presentation analysis. […] Scaling of evolutionary distance for PI kinases is only relative and is based on literature analysis[62],[63]. Average percent kinome inhibition values from replicate data are supplied in Source Data file. […]. Corrected data was normalized to vehicle treated control values, and dose response percent kinase activity was analyzed by non-linear regression for determination of IC50 values.

[3] = biological target: 321 human protein kinases (Homo sapiens, UniProt P45983); test: as above; format: biochemical; conditions: MAPK8 (JNK1); […] LP-182; [ATP] 100 μM
Chain of 321 human protein kinases (Homo sapiens, UniProt P45983) (P45983 whole entry): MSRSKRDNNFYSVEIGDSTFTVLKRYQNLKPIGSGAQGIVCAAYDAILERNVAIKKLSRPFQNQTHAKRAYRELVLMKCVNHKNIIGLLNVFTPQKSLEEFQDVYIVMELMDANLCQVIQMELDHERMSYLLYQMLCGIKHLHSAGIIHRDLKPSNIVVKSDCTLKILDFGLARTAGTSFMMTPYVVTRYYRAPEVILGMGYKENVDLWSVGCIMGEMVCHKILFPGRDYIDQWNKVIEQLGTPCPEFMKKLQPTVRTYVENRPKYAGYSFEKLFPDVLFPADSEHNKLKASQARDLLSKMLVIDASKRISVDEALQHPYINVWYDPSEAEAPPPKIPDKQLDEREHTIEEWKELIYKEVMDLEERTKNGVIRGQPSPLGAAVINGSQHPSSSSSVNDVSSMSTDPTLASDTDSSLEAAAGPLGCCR
Method: as §1

[4] = biological target: 321 human protein kinases (Homo sapiens, UniProt O60331); test: as above; format: biochemical; conditions: PIP5K1C; […] LP-182; [ATP] 10 μM
Chain of 321 human protein kinases (Homo sapiens, UniProt O60331) (O60331 whole entry): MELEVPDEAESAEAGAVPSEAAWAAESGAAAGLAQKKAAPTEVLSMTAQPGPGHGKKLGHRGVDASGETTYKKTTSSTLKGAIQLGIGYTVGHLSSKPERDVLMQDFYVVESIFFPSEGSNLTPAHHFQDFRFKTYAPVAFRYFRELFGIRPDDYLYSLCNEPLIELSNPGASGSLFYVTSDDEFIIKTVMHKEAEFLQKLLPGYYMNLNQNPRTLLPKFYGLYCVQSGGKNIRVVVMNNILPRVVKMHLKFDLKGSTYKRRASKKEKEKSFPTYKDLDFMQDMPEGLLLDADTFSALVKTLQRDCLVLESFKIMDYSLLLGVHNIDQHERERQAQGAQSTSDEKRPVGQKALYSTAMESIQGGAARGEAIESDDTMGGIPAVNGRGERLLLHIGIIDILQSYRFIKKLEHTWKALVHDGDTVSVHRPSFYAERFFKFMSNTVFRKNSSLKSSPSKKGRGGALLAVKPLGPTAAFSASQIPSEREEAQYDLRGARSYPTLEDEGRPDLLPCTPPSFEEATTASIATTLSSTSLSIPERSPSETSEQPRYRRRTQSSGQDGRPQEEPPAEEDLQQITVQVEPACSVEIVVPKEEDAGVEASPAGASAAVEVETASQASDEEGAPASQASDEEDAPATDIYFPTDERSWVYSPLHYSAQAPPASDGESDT
Method: as §1

[5] = biological target: 321 human protein kinases (Homo sapiens, UniProt P45984); test: as above; format: biochemical; conditions: MAPK9 (JNK2); […] LP-182; [ATP] 100 μM
Chain of 321 human protein kinases (Homo sapiens, UniProt P45984) (P45984 whole entry): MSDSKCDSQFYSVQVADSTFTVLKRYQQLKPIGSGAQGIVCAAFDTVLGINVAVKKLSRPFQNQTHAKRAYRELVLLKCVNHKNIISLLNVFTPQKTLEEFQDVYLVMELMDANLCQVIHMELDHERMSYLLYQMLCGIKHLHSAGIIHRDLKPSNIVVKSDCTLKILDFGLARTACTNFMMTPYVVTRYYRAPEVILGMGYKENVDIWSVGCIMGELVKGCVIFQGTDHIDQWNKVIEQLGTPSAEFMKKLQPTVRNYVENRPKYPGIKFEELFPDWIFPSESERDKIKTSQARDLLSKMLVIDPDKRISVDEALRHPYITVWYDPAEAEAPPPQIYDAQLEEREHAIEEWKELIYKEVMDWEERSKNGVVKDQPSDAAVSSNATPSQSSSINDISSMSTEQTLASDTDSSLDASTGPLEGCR
Method: as §1

[6] = biological target: 321 human protein kinases (Homo sapiens, UniProt O14986); test: as above; format: biochemical; conditions: PIP5K1B; […] LP-182; [ATP] 10 μM
Chain of 321 human protein kinases (Homo sapiens, UniProt O14986) (O14986 whole entry): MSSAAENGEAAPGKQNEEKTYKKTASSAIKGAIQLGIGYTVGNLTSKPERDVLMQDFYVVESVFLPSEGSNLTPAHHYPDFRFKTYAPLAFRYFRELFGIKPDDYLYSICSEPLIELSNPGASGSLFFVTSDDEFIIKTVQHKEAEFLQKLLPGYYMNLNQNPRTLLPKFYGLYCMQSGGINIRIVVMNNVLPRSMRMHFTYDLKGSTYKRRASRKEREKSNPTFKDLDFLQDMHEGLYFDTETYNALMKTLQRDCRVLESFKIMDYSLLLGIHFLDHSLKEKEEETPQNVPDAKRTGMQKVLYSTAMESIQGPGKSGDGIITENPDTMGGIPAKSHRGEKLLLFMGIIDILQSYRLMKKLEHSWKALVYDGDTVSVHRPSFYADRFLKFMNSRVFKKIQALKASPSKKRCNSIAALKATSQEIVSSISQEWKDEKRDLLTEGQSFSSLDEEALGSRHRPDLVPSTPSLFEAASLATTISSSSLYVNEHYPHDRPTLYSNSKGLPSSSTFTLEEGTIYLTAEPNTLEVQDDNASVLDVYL
Method: as §1

## O=C(NOCCOCCOCCOCCC(=O)N1CCN(c2cnc3ccc(-c4cnc(Cl)c(NS(=O)(=O)c5ccc(F)cc5)c4)cc3n2)CC1)c1ccc(F)c(F)c1Nc1ccc(I)cc1F [LP-182, N-(2-(2-(2-(3-(4-(7-(6-chloro-5-((4-fluorophenyl)sulfonamido)pyridin-3-yl)quinoxalin-2-yl)piperazin-1-yl)-3-oxopropoxy)ethoxy)ethoxy)ethoxy)-3,4-difluoro-2-((2-fluoro-4-iodophenyl)amino)benzamide]
[1]
  cell numbers of neutrophils (Neu) and megakaryocytes (MK) in the spleen: decreased cell numbers
[2]
  inhibition at […]: 15%
[3]
  inhibition at […]: 15%
[4]
  inhibition at […]: 28%
[5]
  inhibition at […]: 2.22%
[6]
  % Inhibition: 14%
  inhibition at […]: 13%
